Patent US20240067632A1, “WEE1 Degrading Compounds and Uses Thereof” (Bristol-Myers Squibb Company, priority 2022, published 2024)

Legend:
WEE1 = target: T1, WEE1 (Homo sapiens, UniProt P30291+Q96SW2); experiment: WEE1-ePL degradation assay (LentiX-WEE1-ePL-GSPT1-ND cells, InCELL Hunter luminescence, 4 h); format: cell-based; details: 293T-LentiX WEE1-ePL cells; for 293T-LentiX WEE1-ePL Degradation 4 hr (Ymin): lower limit of the fit (Ymin=0 luciferase inhibitor, Ymax DMSO control); for DC50: read-out: 293T-LentiX WEE1-ePL Degradation 4 hr (EC50)
T1 construct: C-terminal ePL-tagged (DiscoverX, Fremont, CA) full-length WEE1 expression construct; expressed in transfected cells; host or cells: LentiX-HEK293T (Invitrogen), lentiviral transduction; co-expressing GSPT1-GN (G576N, lacking the first 158 amino acids)
Method in brief: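 Luminescent readout (InCELL Hunter, 30 min RT) of WEE1-ePL levels in transduced HEK293T cells after 4 h compound exposure at 37 °C. Dosing: 10 points, 3-fold steps, top 1 uM or 10 uM. EC50 from four-parameter logistic fit; Ymax set by DMSO.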

MKN45 cells = experiment: MKN45 cell proliferation assay (Cell-Titer-Glo, 120 h); format: cell-based; details: for EC50: Homo sapiens, MKN-45, 120 h, Cell-Titer-Glo, read-out: MKN45 Cell Prolif. 120 hr (EC50); for MKN45 Cell Prolif. 120 hr (Ymin-Obs): minimal percent of DMSO control observed in the concentrations tested
Method in brief: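 Cells seeded at 400/well onto pre-printed 10-point half-log dilutions (top 1 or 10 uM, 0.1% DMSO final), in triplicate, and grown 120 h at 37 C. Viability by Cell-Titer-Glo luminescence, blank-subtracted and normalised to DMSO; EC50 from four-parameter logistic fit, with observed minimal % of control recorded as Ymin-obs.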

SMILES	293T-LentiX WEE1-ePL Degradation 4 hr (Ymin) (WEE1)	DC50 (WEE1) [nM]	EC50 (MKN45 cells) [nM]	MKN45 Cell Prolif. 120 hr (Ymin-Obs) (MKN45 cells)
COC[C@@H]1CN(Cc2ccc3nc([C@@H]4CCOC(C)(C)C4)ccc3c2)C[C@H]1Oc1ccc2c(c1)CN([C@H]1CCC(=O)NC1=O)C2=O [(3S)-3-(5-{[(3S,4S)-1-({2-[(4R)-2,2-dimethyloxan-4-yl]quinolin-6-yl}methyl)-4-(methoxymethyl)pyrrolidin-3-yl]oxy}-1-oxo-2,3-dihydro-1H-isoindol-2-yl)piperidine-2,6-dione]	25.48	0.726	0.247	7.692
COC[C@@H]1CN(Cc2cc(F)c3nc([C@H]4CCOC(C)(C)C4)ccc3c2)C[C@H]1Oc1ccc2c(c1)CN([C@H]1CCC(=O)NC1=O)C2=O [(3S)-3-(5-{[(3S,4S)-1-({2-[(4S)-2,2-dimethyloxan-4-yl]-8-fluoroquinolin-6-yl}methyl)-4-(methoxymethyl)pyrrolidin-3-yl]oxy}-1-oxo-2,3-dihydro-1H-isoindol-2-yl)piperidine-2,6-dione]	25.19	1.2	0.638	8.947
COC[C@@H]1CN(Cc2ccc3nc([C@H]4CCOC(C)(C)C4)ccc3c2)C[C@H]1Oc1ccc2c(c1)CN([C@H]1CCC(=O)NC1=O)C2=O [(3S)-3-(5-{[(3S,4S)-1-({2-[(4S)-2,2-dimethyloxan-4-yl]quinolin-6-yl}methyl)-4-(methoxymethyl)pyrrolidin-3-yl]oxy}-1-oxo-2,3-dihydro-1H-isoindol-2-yl)piperidine-2,6-dione]	25.45	1.25	0.558	8.285
COC[C@@H]1CN(Cc2ccc3nc(C4CCN(C(C)=O)CC4)ncc3c2)C[C@H]1Oc1ccc2c(c1)CN([C@H]1CCC(=O)NC1=O)C2=O [(3S)-3-(5-{[(3S,4S)-1-{[2-(1-acetylpiperidin-4-yl)quinazolin-6-yl]methyl}-4-(methoxymethyl)pyrrolidin-3-yl]oxy}-1-oxo-2,3-dihydro-1H-isoindol-2-yl)piperidine-2,6-dione]	26.93	11.9	3.54	9.28

Continued, in another order:

293T-LentiX WEE1-ePL Degradation 4 hr (Ymin) (WEE1)	DC50 (WEE1) [nM]	EC50 (MKN45 cells) [nM]	SMILES	MKN45 Cell Prolif. 120 hr (Ymin-Obs) (MKN45 cells)
26.61	0.985	0.955	C[C@@H]1CN(Cc2cc(F)c3nc([C@H]4CCOC4)ccc3c2)C[C@H]1Oc1ccc2c(c1)CN([C@H]1CCC(=O)NC1=O)C2=O [(3S)-3-(5-{[(3S,4R)-1-({8-fluoro-2-[(3R)-oxolan-3-yl]quinolin-6-yl}methyl)-4-methylpyrrolidin-3-yl]oxy}-1-oxo-2,3-dihydro-1H-isoindol-2-yl)piperidine-2,6-dione]	7.865
26.17	1.41	1.13	C[C@@H]1CN(Cc2cc(F)c3nc([C@@H]4CCOC4)ccc3c2)C[C@H]1Oc1ccc2c(c1)CN([C@H]1CCC(=O)NC1=O)C2=O [(3S)-3-(5-{[(3S,4R)-1-({8-fluoro-2-[(3S)-oxolan-3-yl]quinolin-6-yl}methyl)-4-methylpyrrolidin-3-yl]oxy}-1-oxo-2,3-dihydro-1H-isoindol-2-yl)piperidine-2,6-dione]	7.979
33.52	1.05	1.42	C[C@@H]1CN(Cc2cc(F)c3nc(C4CCOCC4)ccc3c2)C[C@H]1Oc1ccc2c(c1)CN([C@H]1CCC(=O)NC1=O)C2=O [(3S)-3-(5-{[(3S,4R)-1-{[8-fluoro-2-(oxan-4-yl)quinolin-6-yl]methyl}-4-methylpyrrolidin-3-yl]oxy}-1-oxo-2,3-dihydro-1H-isoindol-2-yl)piperidine-2,6-dione]	9.05
